Key:
Experiment in all cases: relative viability (nuclei count vs DMSO), 5 days (fraction); higher = more cells survive
Adavosertib + Pemetrexed = compound: C=CCn1c(=O)c2cnc(Nc3ccc(N4CCN(C)CC4)cc3)nc2n1-c1cccc(C(C)(C)O)n1 [Adavosertib] + Nc1nc2[nH]cc(CCc3ccc(C(=O)N[C@@H](CCC(=O)O)C(=O)O)cc3)c2c(=O)[nH]1 [Pemetrexed] (partner 0.2 µM)
Method in brief: (§1)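 Relative viability is defined as nuclei in treated wells over nuclei in vehicle wells. Duplicate plates were run and medians reported. Lung cancer cell lines in 1536-well plates were dosed by pin tool one day after seeding, with one drug or with a fixed anchor-drug dose plus five library-drug doses (not always all listed) in √10 steps, and nuclei were counted after 5 days.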

Nelarabine + Pemetrexed = compound: COc1nc(N)nc2c1ncn2[C@@H]1O[C@H](CO)[C@@H](O)[C@@H]1O [Nelarabine] + Nc1nc2[nH]cc(CCc3ccc(C(=O)N[C@@H](CCC(=O)O)C(=O)O)cc3)c2c(=O)[nH]1 [Pemetrexed] (partner 0.2 µM)
Method in brief: as §1

Nelarabine + Tozasertib = compound: COc1nc(N)nc2c1ncn2[C@@H]1O[C@H](CO)[C@@H](O)[C@@H]1O [Nelarabine] + Cc1cc(Nc2cc(N3CCN(C)CC3)nc(Sc3ccc(NC(=O)C4CC4)cc3)n2)n[nH]1 [Tozasertib] (partner 0.1 µM)
Method in brief: as §1

Nelarabine + Foretinib = compound: COc1nc(N)nc2c1ncn2[C@@H]1O[C@H](CO)[C@@H](O)[C@@H]1O [Nelarabine] + COc1cc2c(Oc3ccc(NC(=O)C4(C(=O)Nc5ccc(F)cc5)CC4)cc3F)ccnc2cc1OCCCN1CCOCC1 [Foretinib] (partner 0.25 µM)
Method in brief: as §1

Cell Line | relative viability (Adavosertib + Pemetrexed; first compound 0.01 µM) | relative viability (Adavosertib + Pemetrexed; first compound 0.03162 µM) | relative viability (Adavosertib + Pemetrexed; first compound 0.1 µM) | relative viability (Adavosertib + Pemetrexed; first compound 0.3162 µM) | relative viability (Nelarabine + Pemetrexed; first compound 0.01 µM) | relative viability (Nelarabine + Pemetrexed; first compound 0.03162 µM) | relative viability (Nelarabine + Pemetrexed; first compound 0.1 µM) | relative viability (Nelarabine + Pemetrexed; first compound 0.3162 µM) | relative viability (Nelarabine + Pemetrexed; first compound 1 µM) | relative viability (Nelarabine + Tozasertib; first compound 0.01 µM) | relative viability (Nelarabine + Tozasertib; first compound 0.03162 µM) | relative viability (Nelarabine + Tozasertib; first compound 0.1 µM) | relative viability (Nelarabine + Tozasertib; first compound 0.3162 µM) | relative viability (Nelarabine + Tozasertib; first compound 1 µM) | relative viability (Nelarabine + Foretinib; first compound 0.01 µM) | relative viability (Nelarabine + Foretinib; first compound 0.03162 µM) | relative viability (Nelarabine + Foretinib; first compound 0.1 µM) | relative viability (Nelarabine + Foretinib; first compound 0.3162 µM) | relative viability (Nelarabine + Foretinib; first compound 1 µM)
EPLC-272H | 0.33 | 0.258 | 0.175 | 0.116 | 0.3 | 0.288 | 0.308 | 0.289 | 0.378 | 0.219 | 0.2 | 0.287 | 0.295 | 0.253 | 0.81 | 0.503 | 0.655 | 0.66 | 0.584
NCI-H647 | 0.155 | 0.159 | 0.141 | 0.123 | 0.17 | 0.162 | 0.154 | 0.194 | 0.217 | 0.347 | 0.207 | 0.387 | 0.24 | 0.247 | 1.22 | 1.02 | 1.26 | 1.26 | 1.37
NCI-H2009 | 1.03 | 0.987 | 1.04 | 0.775 | 1.09 | 1.05 | 1.07 | 1.08 | 1.11 | 0.893 | 0.748 | 0.742 | 0.812 | 0.752 | 1.19 | 1.2 | 1.31 | 1.22 | 1.27
NCI-H2228 | – | 0.331 | 0.361 | 0.2 | 0.342 | 0.346 | 0.269 | 0.374 | 0.4 | 0.226 | 0.163 | – | 0.245 | 0.214 | 0.977 | 1.02 | – | 0.956 | 0.86
NCI-H1395 | 0.766 | 0.938 | 0.604 | 0.689 | 0.818 | 0.755 | 1.21 | 0.773 | 0.707 | 0.839 | 0.67 | 0.814 | 0.729 | 0.657 | 1.07 | 0.923 | 1.08 | 1.01 | 1.01
LK-2 | 0.266 | 0.238 | 0.357 | 0.215 | 0.191 | – | 0.26 | 0.273 | 0.294 | 0.172 | – | 0.161 | 0.147 | 0.156 | 1.3 | – | 1.19 | 1.17 | 1.22
NCI-H520 | 0.762 | 0.686 | 0.616 | 0.297 | 0.768 | 0.584 | 0.687 | 0.842 | 0.786 | 0.574 | 0.315 | 0.429 | 0.457 | 0.429 | 1.06 | 0.799 | 0.95 | 0.789 | 0.676
CAL-12T | 1.15 | 1.25 | 1.02 | 0.682 | 1.55 | 1.19 | 1.42 | 1.2 | 1.22 | 0.358 | 0.309 | 0.316 | 0.303 | 0.363 | 1.3 | 1.14 | 1.15 | 1.09 | 1.04
NCI-H460 | 0.0616 | 0.0693 | 0.0573 | 0.0705 | 0.0547 | 0.0633 | 0.0599 | 0.0615 | 0.0625 | 0.834 | 0.253 | 0.38 | 0.77 | 0.442 | 1.49 | 1.23 | 1.13 | 1.23 | 1.06
NCI-H1944 | 0.621 | 0.582 | 0.428 | 0.27 | 0.659 | 0.584 | 0.589 | 0.617 | 0.61 | 0.285 | 0.239 | 0.252 | 0.27 | 0.253 | 1.09 | 0.896 | 0.776 | 0.917 | 0.834
NCI-H1437 | 0.328 | 0.281 | 0.309 | 0.229 | 0.344 | 0.359 | 0.301 | 0.39 | 0.323 | 0.466 | 0.353 | 0.488 | 0.427 | 0.41 | 1.4 | 1.18 | 1.23 | 1.25 | 1.15
NCI-H2087 | 0.644 | 0.634 | 0.67 | 0.644 | 0.782 | 0.67 | 0.723 | 0.7 | 0.717 | 0.303 | 0.24 | 0.22 | 0.19 | 0.245 | 1.43 | 0.917 | 1.06 | 1.01 | 1.11
LU99A | 0.156 | 0.165 | 0.144 | 0.115 | 0.197 | 0.154 | 0.173 | 0.192 | 0.223 | 0.287 | 0.253 | 0.239 | 0.264 | 0.279 | 0.934 | 0.683 | 0.706 | 0.801 | 0.889
NCI-H1993 | 0.57 | 0.517 | 0.608 | 0.629 | 0.632 | 0.477 | 0.598 | 0.64 | 0.67 | 0.662 | 0.553 | 0.623 | 0.586 | 0.571 | 0.845 | 0.712 | 0.737 | 0.831 | 0.708
NCI-H2342 | 0.754 | 0.826 | 0.764 | 0.844 | 0.901 | 0.659 | 0.681 | 0.817 | 0.801 | 0.532 | 0.513 | 0.446 | 0.478 | 0.462 | 0.974 | 0.887 | 0.875 | 0.906 | 1.01

Source: the supplement of paper PMC10307832
